The test system of experiment [1] is PC3 tumor xenografts. Kind of experiment: PC3 human prostate tumor xenograft (Example 59). Type of experiment: in vivo, nude NCRNU mice. The conditions noted are these: 3 weeks; for Final Tumor Weight (V/Vo) ± SEM: control 1070.0 ± 132.5. From the text: (§1) For tests involving the MDAMB-435 model, female nude NCRNU mice, 5-6 weeks old, weighing approximately 20 grams, were implanted with 2×10^6 MDAMB-435 cells into the subaxillary mammary fat pad. For tests involving the PC3 model, male nude NCRNU mice, 5-6 weeks old, weighing approximately 25 g were implanted with 2×10^6 PC3 cells into the dorsal subcutis. When the tumors were 100 mm^3 (for the MDAMB-435 model), or 60 mm^3 (for the PC3 model), the animals were pair-matched into treatment and control groups.
(§2) Each group contained 6-7 tumored mice, each of which was ear-tagged and followed individually throughout the experiment. Initial doses of peptide or vehicle control were given on the day of pair-matching (Day 0), and were administered daily via intraperitoneal (i.p.) injection at doses indicated. Mice were weighed weekly, and tumor measurements were taken by calipers weekly, starting on Day 0. These tumor measurements were converted to tumor volume by a well-known formula, (V=W^2×L/2) and mean tumor volumes were plotted against time. Mice were euthenized at the end of the treatment period. Upon termination, the mice were weighed, sacrificed and their tumors were excised. The mean tumor weight per group was calculated, and the mean treated tumor volume/control tumor volume×100 was subtracted from 100% to give the tumor growth inhibition (TGI) for each group.

The subject of experiment [2] is MDAMB-435 tumor xenografts. Kind of experiment: MDAMB-435 human breast tumor xenograft (Example 59). The note with it: 3 weeks; for Final Tumor Weight (V/Vo) ± SEM: control 468.5 ± 48.06. Type of experiment: in vivo, nude NCRNU mice.
Description: as §1, §2
For orientation: Xenograft models place foreign cells or tissue in a host animal.

Experiment [3] relates to PC3 tumor xenografts. Kind of experiment: PC3 human prostate tumor xenograft (Example 58). Type of experiment: in vivo, nude NCRNU mice. The conditions noted are these: 5.0 mg/kg i.p. daily, 3 weeks; for Final Tumor Weight (V/Vo) ± SEM: T7 vehicle 5.626 ± 0.38, T8 vehicle 6.278 ± 1.483. The procedure: Male nude NCRNU mice, 5-6 weeks old, weighing approximately 25 grams, 6 were implanted with 2×10^6 PC3 cells into the dorsal subcutis. When the tumors were 60 mm^3, the animals were pair-matched into treatment and control groups. Each group contained 6-7 tumored mice, each of which was ear-tagged and followed individually throughout the experiment. Initial doses of peptide or vehicle control were given on the day of pair-matching (Day 0), and were administered via intraperitoneal (i.p.) injection at doses indicated. Mice were weighed weekly, and tumor measurements were taken by calipers weekly. These tumor measurements were converted to tumor volume by a well-known formula, (V=W^2×L/2), and mean tumor volumes were plotted against time. Mice were euthenized at the end of the treatment period. Upon termination, the mice were weighed, sacrificed and their tumors were excised. The mean tumor weight per group was calculated, and the value of mean treated tumor volume or volume ratio/mean control tumor volume or volume ratio×100 was subtracted from 100% to give the tumor growth inhibition (TG1) for each group. All groups received injections I.P. daily, except for two T8-treated groups, which were treated twice per week and once a week, respectively.

The subject of experiment [4] is C-PAE cells. Kind of experiment: Endothelial cell proliferation, methylene blue staining. Type of experiment: cell-based, bovine. The procedure:
A methylene blue staining test was also done. 3,100 cells were added to each well and treated as above, and cells were then counted using the method of Oliver et al. (Oliver, M. H. et al., 1989, J. Cell. Science 92:513-18). All wells were washed one time with […] of 1×PBS and the cells were fixed by adding […] of 10% formalin in neutral-buffered saline (Sigma Chemical Co., St. Louis, Mo., USA) for 30 minutes at room temperature. After formalin removal cells were stained with a solution of 1% methylene blue (Sigma Chemical Co.) in 0.01 M borate buffer (pH 8.5) for 30 minutes at room temperature. After removal of staining solution, the wells were washed 5 times with […] of 0.01 M borate buffer (pH 8.5). Methylene blue was extracted from the cells with […] of 0.1N HCi/ethanol (1:1 mixture) for 1 hour at room temperature. The amount of methylene blue staining was measured on a microplate reader (BioRad, Hercules, Calif., USA) using light absorbance at 655 nm wavelength.
In the methylene-blue staining method, 7000 cells were plated into each well of a 96-well plate, and treated as described above. Cells were then counted using the method of Oliver et al. (1989, J. Cell. Sci. 92:513-8). After 48 hours of treatment, all wells were washed with 100 μl of PBS, and the cells fixed with 10% formalin in neutral-buffered saline (Sigma Chemical Co., St. Louis, Mo., USA). The cells were then stained with 1% methylene blue (Sigma) in 0.01M borate buffer, pH 8.5. Wells were washed with 0.01M borate buffer, and the methylene blue extracted from the cells with 0.1N HCl/ethanol, and the absorbance measured in a microplate reader (Bio-Rad, Hercules, Calif., USA) at 655 nm. Polymyxin B (Sigma) at a final concentration of 5 μg/ml was used to inactivate endotoxin (Liu, S. et al., 1997, Clin. Biochem. 30:455-63).
Proliferation of endothelial cells (C-PAE cells) and WM-164 melanoma cells was assayed by methylene blue staining, as described above in Examples 25 and 34. The results are shown in FIGS. 33A and 33B, which are a pair of graphs showing the effect of increasing concentration (x-axis) of Tumstatin, Tum-1, Tum-2, Tum-3 and Tum-4 on the relative number (y-axis) of C-PAE cells (FIG. 33A) and WM-164 cells (FIG. 33B). […] Tum-4, however, did have anti-proliferative activity in this cell line. […] Only Tum-4 inhibited WM-164 melanoma cells.
For the proliferation assay, Canstatin, Can-1 and Can-2 soluble proteins (0.1-20.0 μg/ml) were added to the growth medium of proliferating C-PAE cells, which were stimulated with 10% FBS in DMEM, in addition to 5 ng/ml bFGF and 3 ng/ml VEGF. The results are shown in FIG. 40, which is a graph showing the effect of increasing concentrations of Canstatin (♦), Can-1 (▪) and Can-2 (▴) (x-axis) on the relative cell number (y-axis) of C-PAE cells. Each concentration of each protein was tested in quadruplicate. Bovine serum albumin (BSA) was used as a control treatment. Polymyxin B was used to control for endotoxin interference, and no differences were found between assays run with and without polymyxin B added to the medium. Cells were allowed to proliferate for 48 hours, and were then fixed, stained and the density read with a Bio-Rad plate reader (Bio-Rad, Hercules, Calif., USA). Canstatin and Can-1 both caused dose-dependent decreases in the percent cell number, and both reduced the number of cells by 80% at concentrations of 5 μg/ml and higher.
An endothelial cell proliferation assay was used to compare the activity of Tumstatin and some of the deletion mutants. Recombinant Tumstatin (28 kDa), Tumstatin-44-131 (12 kDa) and T3 peptide were used in a methylene blue proliferation assay in equimolar concentrations.

Experiment [5] relates to Caspase-3 in C-PAE cells. Description: Caspase-3 assay. Type of experiment: cell-based, bovine. Here is the method:
Tumstatin also altered cell morphology of C-PAE cells as monitored by phase contrast microscopy. After treating cells with 20 μg/ml of Tumstatin in the presence of 10% FCS for 24 hours on fibronectin-coated plates, the typical morphological features of apoptotic cells, membrane blebbing, cytoplasmic shrinkage, and chromatin condensation could be observed. […] Caspase-3 assay: Caspase-3 (CPP32) is an intracellular protease activated at the early stage of apoptosis, and initiates cellular breakdown by degrading structural and DNA repair proteins (Casciola-Rosen, L. et al., 1996, J. Exp. Med. 183:1957-64; Salvesen, G. S. et al., 1997, Cell 91:443-46). The protease activity of Caspase-3 was measured spectrophotometrically by detection of the chromophore (p-nitroanilide) cleaved from the labeled substrate (DEVD-pNA). C-PAE cells or PC-3 cells (0.5×10^6 per well) were plated onto a 6-well plate precoated with fibronectin (10 μg/ml) in DMEM supplemented with 10% FCS, and incubated overnight. The next day, the medium was replaced with DMEM containing 2% FCS and then incubated overnight at 37° C. Then cells were then stimulated with bFGF (3 ng/ml) in DMEM supplemented with 2% FCS, and also containing either TNF-α (80 ng/ml, positive control) or Tumstatin (10 μg/ml), and incubated for 24 hours. Controls received PBS buffer. After 24 hours, the supernatant cells were collected, and attached cells were trypsinized and combined with the supernatant cells. Cells were counted and resuspended in cell lysis buffer (Clontech) at a concentration of 4×10^7 cells/ml. The rest of the protocol followed the manufacturer's instructions (Clontech). A specific inhibitor of Caspase-3, DEVD-fmk (Asp-Glu-Val-Asp-fluoromethyl ketone) was used to confirm the specificity of the assay. The absorbance was measured in a microplate reader (Bio-Rad, Hercules, Calif., USA) at 405 nm. The assay was repeated three times for each cell type.
Apoptosis was also evaluated by measuring Caspase-3 activity as described in Example 27, above. The results are shown in FIG. 35, which is a histogram showing Caspase-3 activity as a measure of absorbance at OD405 (y-axis) of C-PAE cells treated (x-axis) with 5 μg/ml Tum-1, Tum-2, Tum-3 or Tum-4, or 80 ng/ml TNF-α or PBS buffer (control).
Caspase-3 activity was also assayed as described above. DEVD-fmk, a specific caspase-3 inhibitor, was used as an internal control to show specificity of Tumstatin-44-131. TNF-α (80 ng/ml) was used as a positive control. The experiments were repeated three times.
The protease activity of Caspase-3 in cells treated with T3 peptide was measured spectrophotometrically by detection of the chromophore (p-nitroanilide) cleaved from the labeled substrate (DEVD-pNA). […] In PC-3 nonendothelial cells, there was no difference in Caspase-3 activity between control treatments and T3 peptide-treated cells.

As for “TFNCVKNYQRLDFTSRFVMDSCANFPN (Scrambled peptide SP2) [reference compound]”, the “Final Tumor Weight (V/Vo) ± SEM” value was 931.0 ± 112.3 in experiment [1] (5.0 mg/kg i.p. daily), 527.2 ± 57.89 in experiment [2] (5.0 mg/kg i.p. daily) and 5.097 ± 0.185 in experiment [3]. In addition, the “% Tumor growth inhibition” value in experiment [2] (5.0 mg/kg i.p. daily) was “no tumor growth inhibition”; in experiment [3], 18.7%.
On to “KQRFTTMPFLFSNVNDVSNFASRNDYS (T8-3 (amino acids 68-94 of SEQ ID NO10; lysine has been substituted for the leucine residue at position 68 of the full-length Tumstatin molecule, and serine has been substituted for the cysteine residues at positions 79 and 85))”, for which the results for the “% Tumor growth inhibition” value in experiment [1] (1.0 mg/kg i.p. daily), in experiment [1] (5.0 mg/kg i.p. daily) and in experiment [2] (5.0 mg/kg i.p. daily) were 28.5%, 35.4% and 41.9%, respectively. For the same molecule, the “Final Tumor Weight (V/Vo) ± SEM” value in experiment [1] (1.0 mg/kg i.p. daily) worked out at 765.1 ± 133.6; in experiment [1] (5.0 mg/kg i.p. daily), 691.5 ± 130.8; in experiment [2] (1.0 mg/kg i.p. daily), 370.1 ± 68.17; in experiment [2] (5.0 mg/kg i.p. daily), 272.4 ± 34.86.
On to “KQRFTTMPFLFDNVNDVDNFASRNDYS (P2 (amino acids 68-94 of SEQ ID NO10; lysine has been substituted for the leucine residue at position 68 of the full-length Tumstatin molecule, and aspartic acid has been substituted for the cysteine residues at positions 79 and 85))”, for which the results for the “% Tumor growth inhibition” value in experiment [1] (1.0 mg/kg i.p. daily), in experiment [1] (5.0 mg/kg i.p. daily) and in experiment [2] (1.0 mg/kg i.p. daily) were 31.6%, 15.9% and 26.4%, respectively. The “Final Tumor Weight (V/Vo) ± SEM” value in experiment [1] (1.0 mg/kg i.p. daily) is on record as 732.4 ± 85.96; in experiment [1] (5.0 mg/kg i.p. daily), 899.7 ± 60.25; in experiment [2] (1.0 mg/kg i.p. daily) it was 344.7 ± 34.20; in experiment [2] (5.0 mg/kg i.p. daily), 380.5 ± 25.91.
In the case of TMPFLFCNVNDVCNFASRNDYSYWL [T7], in experiment [3], the “% Tumor growth inhibition” value is recorded as 66.8% and the “Final Tumor Weight (V/Vo) ± SEM” value is 1.868 ± 0755. Moreover, the EC50 in experiment [4] (equimolar comparison, read-out: ED50, anti-proliferative effect) amounted to 1000 nM.
As to `CC(C)[C@H](NC(=O)[C@H](CCC(=O)O)NC(=O)[C@@H](N)CC(=O)O)C(=O)N[C@@H](CC(=O)O)C(=O)CF` [DEVD-fmk, Asp-Glu-Val-Asp-fluoromethyl ketone, reference compound], in experiment [5], the “effect of specific Caspase-3 inhibitor on protease activity” value was “decreased the protease activity to baseline”.

B1: Tum-3: residues 133 to 244 of Tumstatin (SEQ ID NO:24) (protein)
chain: AVHSQTTDIPPCPHGWISLWKGFSFIMFTSAGSEGTGQALASPGSCLEEFRASPFLECHGRGTCNYYSNSYSFWLASLNPERMFRKPIPSTVKAGELEKIISRCQVCMKKRH
modifications: Tum-3 (amino acids 133-244 of SEQ ID NO10)
For B1, the “effect on Caspase-3 activity” value in experiment [5] (5 μg/ml) is reported as “did not”. Besides, the “inhibition of proliferation of C-PAE cells” value in experiment [4] (15 μg/ml) is “did not inhibit”. In experiment [4] (20% FCS, 15 μg/ml recombinant protein), the “Relative Cell No. (%) C-PAE” value was found to be 94.9 ± 3.1%.

These data come from US7387779B2, “Anti-angiogenic proteins and fragments and methods of use thereof” (Beth Israel Deaconess Medical Center, priority 1998, dated 2008).
